Data reported in patent US11198680B2 (BioAxone BioSciences, Inc., priority 2016, dated 2021).
Where two headings read alike, the source gives them in different places.

What was measured:
ROCK1 [1] = target: ROCK1 (Homo sapiens (Human), UniProt Q13464); experiment: Direct filter-binding radiometric kinase assay, IC50 determination; type: biochemical
Description: Variations in ATP concentrations were tested to better understand potential selectivity in ischemic and diseased tissue where ATP concentrations may be low and impact selectivity.
[…] Both services use a direct filter-binding, radiometric kinase assay with slight variation in protocol.
The top concentration tested was 100 μM for both services. Test compounds were prepared in 100% DMSO at 50× final test concentration and were diluted to 1× in the assay with a final DMSO concentration of 2%.
For one assay, the substrate […] (SEQ ID NO:1) (30 μM) was mixed with reaction buffer (Table 4) and the kinase domain from either the ROCK1 or ROCK2 (as indicated in Table 4). Next, the compounds (in DMSO) were delivered into the mixture via acoustic mixing technology (Echo550, nanoliter range) (SelectScience, Waltham, Mass.), and incubated at RT for 20 min. […] Reactions were then spotted onto P81 ion exchange paper followed by scintillation counting.
The reaction was stopped by the addition of 3% phosphoric acid and 10 μL of the reaction was spotted onto P30 filtermat, washed 3 times in 75 mM phosphoric acid and once in methanol prior to scintillation counting.

[2] = test system: ROCK2 activation (phospho-cofilin); experiment: Transient MCAO stroke model, phospho-cofilin Western blot left versus right brain; type: in vivo, mouse
Description: The murine intraluminal monofilament model of middle cerebral artery occlusion (MCAO) is used on mice in this study. MCAO involves the insertion of a surgical filament into the external carotid artery and threading it forward into the internal carotid artery until the tip occludes the origin of the MCA, resulting in a cessation of blood flow and subsequent brain infarction in the MCA territory. The technique is used herein to model transient occlusion. If the filament is removed after 1 h, reperfusion is achieved (transient MCAO). This study determines the most efficacious dose and route of administration that reduce Rho-kinase 2 (ROCK2) activation following transient MCAO-induced stroke in mice. The pharmacodynamic response is also determined in this study.
Twenty-eight 9-wk old C57BL/6 (Charles River Laboratories) were used in this study. For surgery, the mouse was placed in a supine position on an infrared heating pad. The fur over the ventral neck was shaved and the skin was disinfected with 70% ethanol and povidone iodine. Under a stereo dissecting microscope, a 1 cm midline incision was made on the neck and retractors were used to expose the left common carotid artery (CCA), the external carotid artery (ECA) and the internal carotid artery (ICA). The arteries were carefully dissected to free them from surrounding nerves and fascia. The ECA was dissected further distally and two 8-0 silk sutures are tied around the ECA stump and a vascular clamp was applied at the bifurcation of the CCA into the ECA and ICA. A small incision was made at the end of ECA stump with Vannas-style spring scissors. A blunt 5-0 monofilament suture (Doccol) was inserted into the incision and advanced from the lumen of the ECA into the ICA for a distance of 9-10 mm beyond the bifurcation of CCA to occlude the origin of MCA. For the mouse model, a distance of 9 mm-11 mm rostral to the CCA bifurcation is inserted. After 60 min., the monofilament was removed. The incision was sutured with 4.0 prolene sutures. […] The mouse is allowed to recover on a heating pad until thermoregulation is re-established.
For Western blot analysis, mice were anesthetized using isoflurane and decapitated. […]
20 μL protease inhibitor (Halt, Protease, Fisher Scientific, Pittsburgh, Pa.) and 10 μL phosphatase inhibitor (Fisher Scientific) were added to 1 mL RIPA buffer (Santa Cruz Biotechnology, Dallas, Tex.). […] The protein concentration of each sample was determined using the DC Protein Assay Kit and following the manufacturer's instructions.
The left and right hemispheres of each brain were homogenized and prepared for Western blotting, and the signal of phospho-cofilin was measured quantitatively by densitometry compared to an internal standard, cyclophilin. […]

human hepatocytes = experiment: Metabolism in cultured hepatocytes; type: in vitro ADME
[3] = test system: cynomolgus monkey hepatocytes; experiment: Metabolism in cultured hepatocytes; type: in vitro ADME
ROCK2 [4] = target: T1, ROCK2 (Homo sapiens (Human), UniProt O75116); settings: ratio of dissociation constants ROCK1/ROCK2
Description: The assay is performed by combining the DNA-tagged kinase, immobilized ligand, and a test compound. The ability of the test compound to compete with the immobilized ligand is measured via quantitative PCR of the DNA tag.
The highest concentration tested was 30 μM.

[5] = Systolic blood pressure in mice, tail cuff plethysmography; settings: 0.5, 1, 3 mg/kg in drinking water; Example 18, present tense
Description: Three test cohorts of mice are housed with unlimited access to normal chow and drinking water. For the first 5 days, the mice are handled daily to habituate them to contact and their blood pressures measured using a multi-animal tail cuff plethysmography apparatus (MRBP Tail Cuff Blood Pressure System; IITC Life Science; Woodland Hills, Calif.). […] These values serve as the baseline.
The third cohort receives normal, unadulterated drinking water. On day 8, blood pressure is measured for all mice.
After the day 8 blood pressure measurement, drug dosage in the 2 test cohorts is increased to 1 mg/kg-body weight and the cohort continues for 3 days at the new dose. On day 11, blood pressure is again recorded by tail cuff plethysmography for all mice during a 5 min. recording session.
Following the blood pressure recording, ON DAY 11, drug dosages in drinking water of test groups are increased up to 3 mg/kg-body weight and the cohorts continue for 3 days at the new dose. On day 14, blood pressure is recorded by tail cuff plethysmography for all mice during a 5 min. recording session.

ROCK2 [6] = target: T1, ROCK2; experiment: ROCK2 inhibition curves, MYPT1 substrate plate assay; type: biochemical; settings: purified ROCK2, MYPT1 substrate
Description: Each compound was dissolved at 100 mM in DMSO. This compound-DMSO solution is diluted to 500 μM in dH2O. Serial dilutions were prepared so that a semi-log range of compound is present after being diluted 5× in other assay reagents, from 100 μM through 1 nM.
10 μL of each concentration of each compound was added in duplicate to individual wells of a 96-well Maxisorp plate (ThermoFisher) pre-coated with the ROCK2 substrate MYPT1 (ThermoFisher). dH2O is added as a negative control.
Using a multichannel pipettor, […] of final volume per well was made by the addition of the following of each solution to begin the reaction: 10 μL 20 mM MOPS pH 7.2, 25 mM β-glycerophosphate, 5 mM EGTA, 1 mM Na3VO4, and 1 mM DTT, 10 μL 50 μM ATP, 10 μL 75 mM MgCl2, and 10 μL 1 mU/μL ROCK2 solution. […]
100 μL TMB/E solution was added to each well with a multichannel pipette. Upon sufficient color development, the reaction was stopped using 100 μL stop solution and absorbance read using a Wallac Victor2 plate reader at 450 nm.
Because absorbance values proportional to ROCK2 activity, plotting absorbance at 450 nm versus final concentration of metabolite and parent compound provides inhibition curves. Relative inhibitory profiles were determined through 4PL analysis of these curves. Variations in calculated IC50 are common before assay optimization due to variations in experimental variables.

[7] = test system: Rho/ROCK activity (MLC2 diphosphorylation) in HUVECs; experiment: LPA-treated HUVECs, pMLC2 T18/S19 immunoblot; type: cell-based, human
Description: (§3) Cell lines were exposed to each dose for 1 hr, and then are stimulated with 20 μM LPA for either 5 min or 1 hr as described below. All experiments were conducted in triplicate and analyzed by two independent assessors blinded to both cell line and treatment.
Cells were subjected to biochemical analysis of diphosphorylated MLC2 (Threonine 18/Serine 19 phosphorylation sites) and cofilin (Serine 9 phosphorylation site) using SDS-PAGE and immunoblotting. Cells were plated in 24-well tissue culture plates coated with 70 μg/ml rat collagen-1 (Corning; Corning, N.Y.), and grown for 2 d to 3 d at 37° C./5% CO2 until confluency. […] Then medium was exchanged for Medium 200 supplemented with 0.1% HSA (Sigma-Aldrich) and 20 μM of LPA (Santa Cruz Biotech; Santa Cruz, Calif.) and incubated for 5 min. After LPA stimulation, proteins were extracted from cells by lysis with RIPA buffer supplemented with HALT complete protease/phosphatase inhibitor (ThermoFisher, Waltham, Mass.), reduced and denatured using Laemmli sample buffer (BioRad, Hercules, Calif.)/beta-mercaptoethanol and subjected to SDS-PAGE.
Denatured samples were electrophoresed in reducing 10% Bis-Tris-gels polyacrylamide gels (Novex; Thermo-Fisher, Waltham, Mass.) and were transferred onto 0.25 μm PVDF membranes (EMD Millipore, Billerica, Mass.). Membranes are probed using amti-pMLC2 T18/S19 (1:500; Cell Signaling, Danvers, Mass.) or anti-pCofilin S9 (1:500, Cell Signaling, Danvers, Mass.) and anti-glyceraldehyde 3-phosphate dehydrogenase loading control (GAPDH, 1:10000; Abcam). Protein levels were detected using chemiluminescence substrate (Super Signal West, ThermoFisher, Waltham, Mass.) and images captured using a FluoroChem SP Imaging System.

HUVEC monolayer = experiment: LPA-treated HUVECs, endothelial monolayer integrity; type: cell-based, human; settings: 1 μM or 10 μM, 20 μM LPA 60 min
Description: as §3
To examine HUVEC monolayer integrity, cells were plated on PDL-coated coverslips (Corning) coated with fibronectin, collagen-1 and gelatin. 50,000 cells were seeded on each coverslip situated in a 24-well plate. Cells were grown for 3 days at 37° C./5% CO2. […] The medium was exchanged by Medium 200 supplemented with 0.1% HSA and 20 μM of LPA (Santa Cruz) and incubated for 60 min.
After LPA stimulation, cells were fixed with 4% paraformaldehyde and stained for actin-phalloidin (ThermoFisher, Waltham, Mass.) and V-Cadherin (Cell Signaling, Danvers, Mass.) and mounted on microscope slides. Coverslips were imaged by fluorescence microscopy and the cell free holes in the monolayer are measured using Image J (freeware; https://imagej.nih.gov/ij/).

[8] = test system: Rho/ROCK activity (MLC2 diphosphorylation) in human brain microvascular endothelial cells; experiment: LPA-treated hBMVECs, pMLC2 T18/S19 immunoblot; type: cell-based; settings: 20 μM LPA, Example 16, present tense
Description: Cells are exposed to each dose for 1 hr, and are then stimulated with 20 μM LPA for either 5 min or 1 hr as described below. All experiments are conducted in triplicate and analyzed by 2 independent assessors blinded to both cell line and treatment.
Cells are subjected to biochemical analysis of diphosphorylated MLC2 (Threonine 18/Serine 19 phosphorylation sites) and phosphorylated cofilin (Serine 9 phosphorylation site) using SDS-PAGE and immunoblotting. Cells are plated in 24-well tissue culture plates coated with 70 μg/ml rat collagen-1 (Corning) and grown in ENDO-growth media (Neuromics) for 3 days at 37° C./5% CO2 until confluency. […] The medium is exchanged for ENDO basal media supplemented with 1% HSA, 20 μM of LPA (Santa Cruz Biotech; Santa Cruz, Calif.) and the appropriate amount of compound being tested. After 5 min, the medium is aspirated and the cells are briefly washed with 1×PBS. Proteins are extracted from cells by lysis with RIPA buffer supplemented with complete protease/phosphatase inhibitor (HALT, Thermo Fisher Scientific), reduced and denatured using Laemmli sample buffer (BioRad; Hercules, Calif., beta-mercaptoethanol and subjected to SDS-PAGE.
Denatured samples are electrophoresed in reducing 10% Bis-Tris-PA gels (Novex; Thermo-Fisher), and are transferred onto 0.25 μm PVDF membranes (EMD Millipore). Membranes are probed using amti-pMLC2 T18/S19 (1:500; Cell Signaling) or anti-pCofilin (1:500, Cell Signaling S9) and anti-glyceraldehyde 3-phosphate dehydrogenase loading control (GAPDH, 1:10000; Abcam, Cambridge, Mass.). Protein levels are detected using a chemiluminescence substrate (Super Signal West, ThermoFisher) and images are captured using a FluoroChem SP Imaging System.

ROCK1 [9] = experiment: KINOMEscan kinome screen; settings: percent of negative control binding; first ROCK1 row
Source text: (§1) The KINOMEscan™ screening platform (DiscoverX, Fremont, Calif.) employs a novel active site-directed competition binding assay to quantitatively measure interactions between test compounds and more than 450 human kinases and disease relevant mutant variants. […] Compounds that bind the kinase active site and directly (sterically) or indirectly (allosterically) prevent kinase binding to the immobilized ligand, will reduce the amount of kinase captured on the solid support. […] Screening “hits” are identified by measuring the amount of kinase captured in test versus control samples by using a quantitative, precise and ultra-sensitive qPCR method that detects the associated DNA label.
(§2) Kinase-tagged T7 phage strains were grown in parallel in 24-well blocks in an E. coli host derived from the BL21 strain. E. coli were grown to log-phase and infected with T7 phage from a frozen stock (multiplicity of infection=0.4) and incubated with shaking at 32° C. until lysis (90-150 minutes). The lysates were centrifuged (6,000×g) and filtered (0.2 μm) to remove cell debris. The remaining kinases were produced in HEK-293 cells and subsequently tagged with DNA for qPCR detection (Wein, et al. (2016) Nat. Comm. 7). […] Test compounds were prepared as 40× stocks in 100% DMSO and directly diluted into the assay. All reactions were performed in polypropylene 384-well plates in a final volume of 0.02 ml.

ROCK1 [10] = settings: percent of negative control binding; second row printed ROCK1, text says ROCK1 and ROCK2
Source text: as §1, §2

Chain of ROCK1 (Homo sapiens (Human), UniProt Q13464) (Q13464 2-1354 limits assumed): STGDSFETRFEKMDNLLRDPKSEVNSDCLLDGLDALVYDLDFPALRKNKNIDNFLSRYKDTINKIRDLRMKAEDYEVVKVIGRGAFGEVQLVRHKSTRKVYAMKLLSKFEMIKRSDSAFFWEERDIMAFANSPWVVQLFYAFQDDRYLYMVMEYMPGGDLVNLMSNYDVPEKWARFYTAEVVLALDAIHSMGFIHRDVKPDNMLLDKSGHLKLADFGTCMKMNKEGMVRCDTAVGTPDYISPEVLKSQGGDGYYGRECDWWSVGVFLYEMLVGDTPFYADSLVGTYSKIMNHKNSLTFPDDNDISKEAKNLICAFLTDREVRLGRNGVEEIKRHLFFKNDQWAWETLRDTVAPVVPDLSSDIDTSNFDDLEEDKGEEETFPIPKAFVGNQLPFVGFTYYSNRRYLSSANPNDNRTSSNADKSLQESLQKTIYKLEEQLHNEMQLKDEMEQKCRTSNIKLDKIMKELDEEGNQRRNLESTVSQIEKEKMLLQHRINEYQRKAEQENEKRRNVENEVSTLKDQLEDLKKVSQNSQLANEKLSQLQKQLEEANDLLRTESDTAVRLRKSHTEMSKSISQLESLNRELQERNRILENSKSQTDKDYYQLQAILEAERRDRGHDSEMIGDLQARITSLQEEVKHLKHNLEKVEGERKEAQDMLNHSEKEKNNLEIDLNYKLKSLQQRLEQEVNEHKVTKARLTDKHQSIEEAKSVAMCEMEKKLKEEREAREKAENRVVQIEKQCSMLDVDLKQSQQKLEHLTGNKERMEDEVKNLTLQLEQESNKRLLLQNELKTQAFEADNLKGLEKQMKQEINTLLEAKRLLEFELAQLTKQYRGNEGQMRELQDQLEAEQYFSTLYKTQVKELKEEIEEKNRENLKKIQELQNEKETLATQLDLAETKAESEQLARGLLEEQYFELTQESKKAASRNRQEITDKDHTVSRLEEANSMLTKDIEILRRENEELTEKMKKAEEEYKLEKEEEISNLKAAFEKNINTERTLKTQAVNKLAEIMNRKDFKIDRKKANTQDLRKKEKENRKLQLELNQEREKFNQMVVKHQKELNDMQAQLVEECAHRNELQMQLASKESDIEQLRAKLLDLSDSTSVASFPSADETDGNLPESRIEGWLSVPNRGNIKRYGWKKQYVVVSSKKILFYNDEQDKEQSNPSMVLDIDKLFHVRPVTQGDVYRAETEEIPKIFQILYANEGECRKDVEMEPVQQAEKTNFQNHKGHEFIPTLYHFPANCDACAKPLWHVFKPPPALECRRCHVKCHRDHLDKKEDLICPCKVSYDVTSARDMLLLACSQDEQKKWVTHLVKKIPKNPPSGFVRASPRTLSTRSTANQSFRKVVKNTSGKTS
T1 sequence (O75116 whole entry, species assumed): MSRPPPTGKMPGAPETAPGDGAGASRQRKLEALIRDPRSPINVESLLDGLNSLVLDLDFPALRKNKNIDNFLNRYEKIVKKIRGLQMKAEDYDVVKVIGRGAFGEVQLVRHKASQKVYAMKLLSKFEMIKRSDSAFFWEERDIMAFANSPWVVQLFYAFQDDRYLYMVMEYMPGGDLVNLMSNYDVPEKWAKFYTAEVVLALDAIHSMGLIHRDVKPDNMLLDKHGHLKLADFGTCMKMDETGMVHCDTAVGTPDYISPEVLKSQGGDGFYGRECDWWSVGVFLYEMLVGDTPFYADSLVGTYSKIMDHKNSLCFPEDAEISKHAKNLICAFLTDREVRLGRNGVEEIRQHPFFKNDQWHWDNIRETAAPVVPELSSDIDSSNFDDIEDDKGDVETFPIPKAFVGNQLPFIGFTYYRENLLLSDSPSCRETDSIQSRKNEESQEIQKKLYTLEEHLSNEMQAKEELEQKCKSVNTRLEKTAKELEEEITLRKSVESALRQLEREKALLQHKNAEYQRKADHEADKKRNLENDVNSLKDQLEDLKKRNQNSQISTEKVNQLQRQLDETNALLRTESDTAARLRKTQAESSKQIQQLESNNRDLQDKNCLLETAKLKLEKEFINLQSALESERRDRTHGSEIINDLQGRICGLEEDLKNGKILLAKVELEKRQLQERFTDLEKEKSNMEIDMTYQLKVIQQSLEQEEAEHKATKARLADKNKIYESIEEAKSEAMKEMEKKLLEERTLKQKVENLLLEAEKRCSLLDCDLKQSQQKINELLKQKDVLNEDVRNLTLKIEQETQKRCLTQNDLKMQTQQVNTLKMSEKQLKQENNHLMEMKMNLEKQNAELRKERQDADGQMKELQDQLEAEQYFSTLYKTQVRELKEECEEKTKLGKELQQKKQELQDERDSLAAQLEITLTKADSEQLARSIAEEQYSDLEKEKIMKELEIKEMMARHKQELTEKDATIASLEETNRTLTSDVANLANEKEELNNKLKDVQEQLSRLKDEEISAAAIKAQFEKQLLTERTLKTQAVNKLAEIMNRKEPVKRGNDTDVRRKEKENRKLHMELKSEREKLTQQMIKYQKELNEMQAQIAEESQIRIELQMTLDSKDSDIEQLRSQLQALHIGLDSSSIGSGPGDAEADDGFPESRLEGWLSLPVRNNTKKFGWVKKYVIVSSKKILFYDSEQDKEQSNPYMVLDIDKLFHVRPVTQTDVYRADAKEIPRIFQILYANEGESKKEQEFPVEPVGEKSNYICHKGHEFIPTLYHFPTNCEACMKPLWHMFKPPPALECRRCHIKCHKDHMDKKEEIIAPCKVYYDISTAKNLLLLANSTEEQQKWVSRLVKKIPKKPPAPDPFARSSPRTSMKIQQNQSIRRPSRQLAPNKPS

| Compound | IC50 (ROCK1 [1]; 10 μM ATP, Table 2, read-out: Compound IC50 ROCK1) [µM] | IC50 (ROCK1 [1]; Compound IC50 ROCK1 10 μM ATP, CRO Eurofins, 10 μM ATP) [µM] | IC50 (ROCK1 [1]; Compound IC50 ROCK1 10 μM ATP, CRO Reaction Biology, 10 μM ATP) [µM] | IC50 (ROCK1 [1]; Compound IC50 ROCK1 70 μM ATP, Km ATP 70 μM, Table 3) [µM] | IC50 (ROCK1 [1]; Compound IC50 ROCK1 70 μM ATP, Km ATP 70 μM, Table 7) [µM] | duration of efficacy on phospho-cofilin ([2]; 10 mg/kg after reperfusion, examined 4 hr or 24 hr) | minimal effective levels ([2]; daily repeat dosing) | minimal effective dose to reverse ROCK activation ([2]; single intraperitoneal application, phospho-cofilin left versus right brain) [mg/kg] | ½ Life (human hepatocytes) [min] | ½ Life [3] [min] | Fractional Selectivity for ROCK2 (ROCK2 [4]) | effect on average systolic blood pressure [5] | inhibitory activity for ROCK2 relative to parent BA-1049 (R) (ROCK2 [6]) | concentration fully abolishing MLC2 diphosphorylation ([7]; 20 μM LPA) [µM] | effect on MLC2 diphosphorylation (pMLC2 T18/S19) ([7]; 1-100 μM 1 hr, 20 μM LPA 5 min) | monolayer integrity after LPA (HUVEC monolayer) | concentration fully abolishing MLC2 diphosphorylation [8] [µM] | effect on MLC2 diphosphorylation (pMLC2 T18/S19) ([8]; no data shown) | % Negative Binding, ROCK1 (ROCK1 [9]) [%] | % Negative Binding, ROCK1 (ROCK1 [10]) [%] |
| --- | --- | --- | --- | --- | --- | --- | --- | --- | --- | --- | --- | --- | --- | --- | --- | --- | --- | --- | --- | --- |
| C[C@@H](N)C1CCN(S(=O)(=O)c2cccc3cnccc23)CC1 [BA-1049 (R)] | 3.9 | 3.9 | 0.69 | 29.6 | 29.6 | at least 24 hr | less than 1 mg/kg | 1 | 41.7 | 15.3 | 1.86 | little or no effect on average systolic blood pressure | – | – | – | – | – | – | – | – |
| C[C@@H](N)C1CCN(S(=O)(=O)c2cccc3c(=O)[nH]ccc23)CC1 [1-hydroxy-BA-1049 (R)] | – | – | – | – | – | – | – | – | – | – | – | – | ½ log more potent as an inhibitor of ROCK2 activity than the parent | ≥ 10 | reduce MLC2 diphosphorylation | restores monolayer integrity | ≥ 10 | reduce MLC2 diphosphorylation | 0.15 | 0.35 |
